Experimental data: ChEMBL document CHEMBL5528049, “Discovery of (4-Pyrazolyl)-2-aminopyrimidines as Potent and Selective Inhibitors of Cyclin-Dependent Kinase 2” (J Med Chem, 2024)
In brackets after ≈: the same amount, converted by molar mass.

Experiments:
[1] = biological target: Cyclin-dependent kinase 2/cyclin E1 (Homo sapiens, UniProt P24941); assay: Inhibition of N-terminal GST-tagged full-length human CDK2(1 to 298 residues) /FLAG-tagged human Cyclin E1 (1 to 410 residues) expressed in baculovirus-infected Sf21 cells incubated for 60 mins in presence of ATP by HTRF assay
[2] = biological target: Cyclin-dependent kinase 1/cyclin B1 (Homo sapiens, UniProt P06493); assay: Inhibition of N-terminal GST-tagged full length human CDK1 (1 to 297 residues)/human Cyclin B1 (1 to 433 residues) expressed in baculovirus infected Sf21 cells incubated for 60 mins in presence of ATP by HTRF assay
[3] = organism: Homo sapiens; assay: Selectivity index, ratio of IC50 for inhibition of N-terminal GST-tagged full length human CDK1 (1 to 297 residues)/human Cyclin B1 (1 to 433 residues) expressed in baculovirus infected Sf21 cells to IC50 for inhibition of N-terminal GST-tagged full-length human CDK2(1 to 298 residues) /FLAG-tagged human Cyclin E1 (1 to 410 residues) expressed in baculovirus-infected Sf21 cells
[4] = biological target: Cyclin-dependent kinase 4/cyclin D1 (Homo sapiens, UniProt P11802); assay: Inhibition of N-terminal GST-tagged human CDK4 (4 to 303 residues)/N-terminal GST-tagged human Cyclin D1 (4 to 295 residues) expressed in Sf9 insect cells incubated for 60 mins in presence of ATP by HTRF assay
[5] = biological target: CDK6/cyclin D3 (Homo sapiens, UniProt Q00534); assay: Inhibition of N-terminal GST-tagged human CDK6 (1 to 326 residues)/N-terminal 6-His fused human Cyclin D3 (1 to 292 residues) expressed in Sf9 insect cells incubated for 60 mins by HTRF assay
[6] = Intrinsic clearance in human liver microsomes at 1 uM measured upto 30 mins by LC/MS analysis; format: ADME, Microsome; details: read-out: CLH (converted)
[7] = biological target: T1, Cyclin-dependent kinase 2 (Homo sapiens, UniProt P24941); assay: Inhibition of CDK2 in human whole blood spiked with CCNE1-amplified human COV318 cells assessed as reduction in retinoblastoma protein phosphorylation at S780 residue incubated overnight by HTRF microplate reader; format: cell-based
[8] = Solubility of compound in SGF by HPLC analysis
[9] = Apparent permeability from apical to basolateral side in human Caco-2 cells at 50 uM incubated for 120 mins by LCMS analysis
[10] = Protein binding in human plasma assessed as free fraction incubated for 2 hrs by LC-MS/MS analysis; format: ADME, cell-free
[11] = organism: Homo sapiens; assay: (§1) Selectivity index, ratio of IC50 for inhibition of N-terminal GST-tagged human CDK4 (4 to 303 residues)/N-terminal GST-tagged human Cyclin D1 (4 to 295 residues) expressed in Sf9 insect cells to IC50 for inhibition of N-terminal GST-tagged full-length human CDK2(1 to 298 residues) /FLAG-tagged human Cyclin E1 (1 to 410 residues) expressed in baculovirus-infected Sf21 cells
[12] = organism: Homo sapiens; assay: as §1, with “human CDK6 (1” for “human CDK4 (4”, “to 326” for “to 303”, “residues)/N-terminal 6-His fused” for “residues)/N-terminal GST-tagged”, “Cyclin D3 (1” for “Cyclin D1 (4”, “to 292” for “to 295”
[13] = biological target: CDK7/Cyclin H/MNAT1 (Homo sapiens, UniProt P50613); assay: Inhibition of C-terminal 6-His tagged recombinant full-length human CDK7/recombinant full-length human Cyclin H/N-terminal GST-tagged recombinant full-length human MAT1 expressed in baculovirus infected Sf21 insect cells incubated for 60 mins in presence of ATP by HTRF assay
[14] = organism: Homo sapiens; assay: Selectivity index, ratio of IC50 for inhibition of C-terminal 6-His tagged recombinant full-length human CDK7/recombinant full-length human Cyclin H/N-terminal GST-tagged recombinant full-length human MAT1 expressed in baculovirus infected Sf21 insect cells to IC50 for inhibition of N-terminal …
[15] = biological target: CDK9/cyclin T1 (Homo sapiens, UniProt P50750); assay: Inhibition of N-terminal GST-tagged full length human CDK9 (1 to 372 residues)/His-tagged human Cyclin T1 (1 to 726 residues) expressed in baculovirus infected Sf21 insect cells incubated for 60 mins by HTRF assay
[16] = organism: Homo sapiens; assay: Selectivity index, ratio of IC50 for inhibition of N-terminal GST-tagged full length human CDK9 (1 to 372 residues)/His-tagged human Cyclin T1 (1 to 726 residues) expressed in baculovirus infected Sf21 insect cells to IC50 for inhibition of N-terminal GST-tagged full-length human CDK2(1 to 298 residues) /FLAG-tagged human Cyclin E1 (1 to 410 residues) expressed in baculovirus-infected Sf21 cells
[17] = biological target: T1, Cyclin-dependent kinase 2; assay: Inhibition of CDK2 in CCNE1-amplified human COV318 cells assessed as reduction in retinoblastoma protein phosphorylation at S780 residue incubated overnight by HTRF microplate reader; format: cell-based
[18] = AUC in Sprague-Dawley rat at 3 mg/kg, po administered as cassette dose and measured upto 24 hrs by LC-MS/MS analysis; format: ADME, organism-based; details: in vivo
[19] = Cmax in Sprague-Dawley rat at 3 mg/kg, po administered as cassette dose and measured upto 24 hrs by LC-MS/MS analysis; format: ADME, organism-based; details: in vivo
[20] = Oral bioavailability in Sprague-Dawley rat at 3 mg/kg administered as cassette dose and measured upto 24 hrs by LC-MS/MS analysis; format: ADME, organism-based; details: in vivo
[21] = Hepatic blood flow in Sprague-Dawley rat at 0.5 mg/kg, iv administered as cassette dose and measured upto 24 hrs by LC-MS/MS analysis; format: ADME, organism-based; details: in vivo
[22] = Half-life in Sprague-Dawley rat at 0.5 mg/kg, iv administered as cassette dose and measured upto 24 hrs by LC-MS/MS analysis; format: ADME, organism-based; details: in vivo
[23] = Volume of distribution at steady state in Sprague-Dawley rat at 0.5 mg/kg, iv administered as cassette dose and measured upto 24 hrs by LC-MS/MS analysis; format: ADME, organism-based; details: in vivo, read-out: Vdss
[24] = AUC in cynomolgus monkey at 1.5 mg/kg, po administered as cassette dose and measured upto 24 hrs by LC-MS/MS analysis; format: ADME, organism-based, Macaca fascicularis; details: in vivo
[25] = Cmax in cynomolgus monkey at 1.5 mg/kg, po administered as cassette dose and measured upto 24 hrs by LC-MS/MS analysis; format: ADME, organism-based, Macaca fascicularis; details: in vivo
[26] = Oral bioavailability in cynomolgus monkey at 1.5 mg/kg administered as cassette dose and measured upto 24 hrs by LC-MS/MS analysis; format: ADME, organism-based, Macaca fascicularis; details: in vivo
[27] = Hepatic blood flow in cynomolgus monkey at 0.5 mg/kg, iv administered as cassette dose and measured upto 24 hrs by LC-MS/MS analysis; format: ADME, organism-based, Macaca fascicularis; details: in vivo
[28] = Half-life in cynomolgus monkey at 0.5 mg/kg, iv administered as cassette dose and measured upto 24 hrs by LC-MS/MS analysis; format: ADME, organism-based, Macaca fascicularis; details: in vivo
[29] = Volume of distribution at steady state in cynomolgus monkey at 0.5 mg/kg, iv administered as cassette dose and measured upto 24 hrs by LC-MS/MS analysis; format: ADME, organism-based, Macaca fascicularis; details: in vivo, read-out: Vdss
[30] = biological target: Tyrosine-protein kinase JAK2 (Homo sapiens, UniProt O60674); assay: Inhibition of JAK2 (unknown origin) incubated for 90 mins in presence of ATP by fluorescence microplate reader

Row | Structure (SMILES) | IC50 [1] | IC50 [2] | IC50 [4] | IC50 [5] | CLint scaled at 1 µM [6] | IC50 [7] | solubility [8] | Papp A→B at 2 h, 50 µM [9] | fraction unbound at 2 h [10] | Ratio IC50 [3] | other results
1 | N#Cc1cnc(NC2CCN(S(=O)(=O)c3ccccn3)CC2)nc1-c1cnn(CC(F)(F)F)c1 |  |  |  |  | 13.3 mL/min/kg |  | < 1 µg/mL | 18 ×10⁻⁶ cm/s | 0.035 |  | 
2 | CNCc1ccc(-n2cc(-c3nc(NC4CCN(S(C)(=O)=O)CC4)ncc3C#N)cn2)c(Cl)c1 |  |  |  |  | 10 mL/min/kg |  |  |  | 0.33 |  | AUC at 24 h [18]: 3.5 µM·h; Cmax [19]: 412 nM; bioavailability [20]: 69%; QH [21]: 36%; half-life [22]: 3.8 h; Vd [23]: 5.7 L/kg; AUC at 24 h [24]: 0.923 µM·h; Cmax [25]: 93 nM; bioavailability [26]: 20%; QH [27]: 26%; half-life [28]: 6 h; Vd [29]: 4.4 L/kg
3 | CS(=O)(=O)N1CCC(Nc2ncc(Cl)c(-c3cnn(C4CCOCC4)c3)n2)CC1 | 16 nM | 1020 nM |  |  |  |  |  |  |  |  | IC50 [30]: > 10000 nM
4 | CC(C)(O)Cn1cc(-c2nc(NC3CCN(S(=O)(=O)C4CC4)CC3)ncc2C#N)cn1 |  |  |  |  | < 8.33 mL/min/kg |  | 41 µg/mL (≈ 92 µM) | 4.3 ×10⁻⁶ cm/s | 0.35 |  | 

More lines, main results first:

Row | IC50 [1] | IC50 [2] | IC50 [4] | IC50 [5] | CLint scaled at 1 µM [6] | IC50 [7] | solubility [8] | Papp A→B at 2 h, 50 µM [9] | fraction unbound at 2 h [10] | Structure (SMILES) | Ratio IC50 [3] | other results
5 | 0.56 nM | 90 nM | 10 nM | 24 nM | 16.7 mL/min/kg | 823 nM |  |  |  | CS(=O)(=O)N1CCC(Nc2ncc(C(F)(F)F)c(-c3cnn(-c4ccccc4Cl)c3)n2)CC1 | 160 | 
6 | 1.8 nM | 205 nM | 11 nM | 22 nM | < 8.33 mL/min/kg | 709 nM | 3 µg/mL (≈ 6.35 µM) |  |  | CS(=O)(=O)N1CCC(Nc2ncc(C(F)(F)F)c(-c3cnn(CC(F)(F)F)c3)n2)CC1 | 110 | 
7 | 0.53 nM | 43 nM | 11 nM | 58 nM | 11.7 mL/min/kg | 263 nM | 94 µg/mL (≈ 173 µM) | 3.3 ×10⁻⁶ cm/s | 0.078 | CNCc1ccc(-n2cc(-c3nc(NC4CCN(S(C)(=O)=O)CC4)ncc3C(F)(F)F)cn2)c(Cl)c1 | 81 | Ratio IC50 [11]: 21; Ratio IC50 [12]: 109; IC50 [13]: 33 nM; Ratio IC50 [14]: 62; IC50 [15]: 3130 nM; Ratio IC50 [16]: 5900; IC50 [17]: 25 nM
8 |  |  |  |  | 8.33 mL/min/kg |  |  |  | 0.012 | CS(=O)(=O)N1CCC(Nc2ncc(C(F)(F)F)c(-c3cnn(-c4ccc(C#N)cc4Cl)c3)n2)CC1 |  | 
9 |  |  | 14 nM | 31 nM | < 8.33 mL/min/kg | 5110 nM | 46 µg/mL (≈ 94.9 µM) |  |  | CS(=O)(=O)N1CCC(Nc2ncc(C(F)(F)F)c(-c3cnn(-c4ccccc4F)c3)n2)CC1 |  | 
